Reference: PubChem BioAssay (NCI)
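Compound exposure: 48 hours, 5 concentrations, 96-well plates. GI50: concentration for 50% inhibition of growth. Definition used: TGI = concentration required for complete inhibition of growth.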

Experiments:
Test in all cases: NCI anticancer screen, dose series, 48 h
[1] = test system: SN12C renal
[2] = test system: M14 melanoma
[3] = test system: SK-MEL-5 melanoma
[4] = test system: KM12 colon
[5] = test system: CCRF-CEM leukemia
[6] = test system: SF-268 CNS
[7] = test system: COLO 205 colon
[8] = test system: SW-620 colon
[9] = test system: UACC-62 melanoma
[10] = test system: UACC-257 melanoma

Structure (SMILES)	GI50 [1] [µM]	TGI [1] [µM]	GI50 [2] [µM]	TGI [2] [µM]	GI50 [3] [µM]	TGI [3] [µM]	GI50 [4] [µM]	TGI [4] [µM]	GI50 [5] [µM]	TGI [5] [µM]	GI50 [6] [µM]	TGI [6] [µM]	GI50 [7] [µM]	TGI [7] [µM]	GI50 [8] [µM]	TGI [8] [µM]	GI50 [9] [µM]	TGI [9] [µM]	GI50 [10] [µM]	TGI [10] [µM]
OCCCCC#Cc1ccccc1C#Cc1ccc(O)cc1	18.8	34.8	17.8	36	17.7	32.2	14.5	30.9	7.35	26.1	16	41.7	21.6	45.9	18.2	37.1	15.7	29.6	18.5	33.9
COC(=O)c1c2c(c(C)[n+]([O-])c1C)C(=O)C=C(NCc1ccccc1)C2=O	0.356	1.39	0.55	1.87	0.206	0.48	0.7	3.34	0.668	3.71	1.51	4.47	0.274	0.776	0.375	1.54	0.286	1.21	0.261	0.962
O=C1CCc2c(sc3[nH]c(=S)n(-c4cc(C(F)(F)F)cc(C(F)(F)F)c4)c(=O)c23)C1	0.352	11.8	0.463	11.9	0.217	0.465	0.344	1.36	0.349	5.81	0.469	> 45.4	0.258	0.668	0.376	15.7	0.294	1.23	0.725	4.6
COC(C)(C)[C@@H](O)[C@H](O)C[C@H](C)C1=C2CC[C@@H]3[C@@]4(C)CC[C@@H](OC(C)=O)C(C)(C)[C@@H]4C[C@@H](OC4OC(COC(C)=O)C(O)C(O)C4O)[C@@]3(C)[C@]2(C)CC1 (stereo not given in full)	13.4	26.4	12.4	25.4	14.4	27.8	3.55	18.9	5.34	19.9	10.3	25.9	10.6	22.8	15.7	30.1	8.79	21.7	12.6	25.4
O=S(=O)(NC1CCCCC1)c1ccc2c(c1)OCCOCCOCCOCCO2		> 100		> 100		> 100		> 100		> 100		> 100		> 100		> 100		> 100		> 100
C=CC(=O)N1C/C(=C\c2ccc(Cl)c(Cl)c2)C(=O)/C(=C/c2ccc(Cl)c(Cl)c2)C1		0.302		0.702		1.74		0.642		0.082		0.298		0.243		0.262		0.687		1.57
NC(=N\N=C/c1ccc(O)cc1)/C(N)=N\N=C/c1ccc(O)cc1	> 31	> 100	5.56	> 100	3.06	73.1	1.75	> 100	0.324	> 100	16.4	> 100	> 93.5	> 100	> 23.6	> 100	2.22	> 52	> 100	> 100
